PubChem BioAssay AID248 (DTP/NCI, 2004)
Several values for one entry are separate records, joined by “and”; a condition that tells them apart may be missing. Equal entries are not always repeated. Toxic doses and inconclusive results are not listed.

Tested on: L1210 leukemia ip in BDF1 mice, survival T/C
Test: NCI In Vivo Anticancer Drug Screen. Data for tumor model L1210 Leukemia (intraperitoneal) in B6D2F1 (BDF1) mice
Settings: endpoint: mean survival time, higher = longer survival
Outline: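 Transplanted-tumor mice were given test agent; controls received vehicle only. Survival readings from the two groups were divided (treated over control).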

[1] = dose: 100.0 mg/kg/injection, schedule: Q01DX009 (ip), vehicle: saline with Tween-80
[2] = dose: 200.0 mg/kg/injection, schedule: Q01DX009 (ip), vehicle: saline with Tween-80
[3] = dose: 400.0 mg/kg/injection, schedule: Q01DX009 (ip), vehicle: saline with Tween-80
[4] = dose: 100.0 mg/kg/injection, schedule: Q04DX003 (ip), vehicle: saline with Tween-80
[5] = dose: 200.0 mg/kg/injection, schedule: Q04DX003 (ip), vehicle: saline with Tween-80
[6] = dose: 400.0 mg/kg/injection, schedule: Q04DX003 (ip), vehicle: saline with Tween-80
[7] = dose: 100.0 mg/kg/injection, schedule: Q01DX009 (ip), vehicle: Klucel (hydroxypropylcellulose) (HPC)
[8] = dose: 100.0 mg/kg/injection, schedule: Q04DX003 (ip), vehicle: Klucel (hydroxypropylcellulose) (HPC)
[9] = dose: 200.0 mg/kg/injection, schedule: Q04DX003 (ip), vehicle: Klucel (hydroxypropylcellulose) (HPC)
[10] = dose: 400.0 mg/kg/injection, schedule: Q04DX003 (ip), vehicle: Klucel (hydroxypropylcellulose) (HPC)
[11] = dose: 50.0 mg/kg/injection, schedule: Q01DX001 (ip), vehicle: saline
[12] = dose: 100.0 mg/kg/injection, schedule: Q01DX001 (ip), vehicle: saline
[13] = dose: 200.0 mg/kg/injection, schedule: Q01DX001 (ip), vehicle: saline
[14] = dose: 400.0 mg/kg/injection, schedule: Q01DX001 (ip), vehicle: saline
[15] = dose: 100.0 mg/kg/injection, schedule: Q01DX009 (ip), vehicle: saline
[16] = dose: 200.0 mg/kg/injection, schedule: Q01DX009 (ip), vehicle: saline
[17] = dose: 400.0 mg/kg/injection, schedule: Q01DX009 (ip), vehicle: saline

C=C1C(=O)OC2C(=O)OC(CCCCCCCC)C12 (stereo not given)
T/C (dose: 6.2 mg/kg/injection, schedule: Q04DX002 (ip), vehicle: Klucel (hydroxypropylcellulose) (HPC)): 97 % of control
T/C (dose: 12.5 mg/kg/injection, schedule: Q04DX002 (ip), vehicle: Klucel (hydroxypropylcellulose) (HPC)): 94 % of control
T/C (dose: 25.0 mg/kg/injection, schedule: Q04DX002 (ip), vehicle: Klucel (hydroxypropylcellulose) (HPC)): 97 % of control and 104 % of control

CSc1ccc(Sc2cccc3c2C(=O)c2c(cccc2Sc2ccc(SC)cc2)C3)cc1
T/C [1]: 90 % of control
T/C [2]: 92 % of control
T/C [3]: 103 % of control

COC(=O)c1ccc([N+](=O)[O-])cc1O
T/C [4]: 101 % of control
T/C [5]: 102 % of control
T/C [6]: 104 % of control

NNC(=O)c1cc2c3ccccc3ncc2c2ccccc12
T/C [4]: 86 % of control
T/C [5]: 94 % of control
T/C [6]: 108 % of control

CCC1(Cc2ccccc2)C(=O)NC(=S)N(C)C1=O (stereo not given)
T/C (dose: 75.0 mg/kg/injection, schedule: Q01DX001 (ip), vehicle: saline): 106 % of control

O=[N+]([O-])c1cnc2ccnn2c1
T/C [7]: 101 % of control
T/C [8]: 100 % of control
T/C (dose: 200.0 mg/kg/injection, schedule: Q01DX009 (ip), vehicle: Klucel (hydroxypropylcellulose) (HPC)): 97 % of control
T/C [9]: 92 % of control
T/C (dose: 400.0 mg/kg/injection, schedule: Q01DX009 (ip), vehicle: Klucel (hydroxypropylcellulose) (HPC)): 111 % of control
T/C [10]: 100 % of control

C[Si](C)(C)C1C2c3ccccc3C1C1(C#N)C(=O)C(Cl)=C(Cl)C(=O)C21C#N (stereo not given)
T/C [4]: 93 % of control

CC(C)c1cc(C(C)C)c(S(=O)(=O)Cl)c(C(C)C)c1
T/C [11]: 98 % of control
T/C [12]: 95 % of control
T/C [13]: 95 % of control
T/C [14]: 98 % of control

O=C(CCN1CC1)Nc1ccc(NC(=O)CCN2CC2)cc1
T/C (dose: 2.0 mg/kg/injection, schedule: Q01DX009 (ip), vehicle: Klucel (hydroxypropylcellulose) (HPC)): 121 % of control
T/C (dose: 3.0 mg/kg/injection, schedule: Q01DX009 (ip), vehicle: Klucel (hydroxypropylcellulose) (HPC)): 156 % of control
T/C (dose: 6.6 mg/kg/injection, schedule: Q01DX009 (ip), vehicle: Klucel (hydroxypropylcellulose) (HPC)): 184 % of control
T/C (dose: 10.0 mg/kg/injection, schedule: Q04DX003 (ip), vehicle: Klucel (hydroxypropylcellulose) (HPC)): 115 % of control
T/C (dose: 20.0 mg/kg/injection, schedule: Q01DX009 (ip), vehicle: Klucel (hydroxypropylcellulose) (HPC)): 97 % of control
T/C (dose: 40.0 mg/kg/injection, schedule: Q04DX003 (ip), vehicle: Klucel (hydroxypropylcellulose) (HPC)): 171 % of control and 181 % of control

Cc1ncc(C#N)c(C)n1
T/C [12]: 107 % of control
T/C [13]: 102 % of control
T/C [14]: 107 % of control

CC(=O)OC1CC2C=CC1C2 (stereo not given)
T/C [1]: 93 % of control
T/C [2]: 91 % of control
T/C [3]: 86 % of control

Cc1cc2c3ccccc3ncn2n1
T/C [8]: 101 % of control
T/C [9]: 103 % of control
T/C [10]: 109 % of control

CCOP(=O)(OCC)C([O][Sb]([O]CC(C)Cl)[O]CC(C)Cl)c1ccc(OC)cc1 (stereo not given)
T/C (dose: 25.0 mg/kg/injection, schedule: Q04DX003 (ip), vehicle: alcohol): 101 % of control
T/C (dose: 50.0 mg/kg/injection, schedule: Q04DX003 (ip), vehicle: alcohol): 97 % of control
T/C (dose: 100.0 mg/kg/injection, schedule: Q04DX003 (ip), vehicle: alcohol): 103 % of control and 113 % of control

CSc1ccc2[nH]c3c(c2c1)CCNC3
T/C [4]: 108 % of control
T/C [5]: 105 % of control
T/C [6]: 98 % of control

Cc1n[nH]c(C)c1C(C)C
T/C [11]: 103 % of control
T/C [12]: 101 % of control
T/C [13]: 86 % of control

Cc1cccc(N=C2C(=O)NC(=O)NC2=O)c1
T/C (dose: 100.0 mg/kg/injection, schedule: Q01DX Z (ip), vehicle: methylcellulose (MC)): 103 % of control
T/C (dose: 200.0 mg/kg/injection, schedule: Q01DX Z (ip), vehicle: methylcellulose (MC)): 106 % of control

CC(C)C(Br)C(=O)NC(Cc1ccccc1)C(=O)O (stereo not given)
T/C [1]: 96 % of control
T/C [2]: 96 % of control
T/C [3]: 92 % of control

c1ccc2c(c1)ccc1cc3cc4cc5c(ccc6ccccc65)cc4cc3cc12
T/C (dose: 50.0 mg/kg/injection, schedule: Q04DX002 (ip), vehicle: Klucel (hydroxypropylcellulose) (HPC)): 93 % of control
T/C (dose: 200.0 mg/kg/injection, schedule: Q04DX002 (ip), vehicle: Klucel (hydroxypropylcellulose) (HPC)): 90 % of control

CCP(=O)(CC(=O)O)c1ccccc1 (stereo not given)
T/C (dose: 100.0 mg/kg/injection, schedule: Q04DX002 (ip), vehicle: saline with Tween-80): 109 % of control
T/C (dose: 200.0 mg/kg/injection, schedule: Q04DX002 (ip), vehicle: saline with Tween-80): 103 % of control
T/C (dose: 400.0 mg/kg/injection, schedule: Q04DX002 (ip), vehicle: saline with Tween-80): 103 % of control

CCN(CC)C(=O)c1ccncc1
T/C (dose: 50.0 mg/kg/injection, schedule: Q01DX009 (ip), vehicle: saline): 101 % of control
T/C [15]: 106 % of control and 88 % of control
T/C [16]: 97 % of control
T/C [17]: 111 % of control

COC1(OC)C2(Cl)C3C4C5(OC(C)=O)C(=O)C3(OC(C)=O)C3C5C(Cl)(C41Cl)C32Cl (stereo not given)
T/C [12]: 100 % of control
T/C [13]: 96 % of control
T/C [14]: 96 % of control

CCOC(=O)c1[nH]c2ccsc2c1CN1CCCCC1
T/C (dose: 50.0 mg/kg/injection, schedule: Q01DX001 (ip), vehicle: Klucel (hydroxypropylcellulose) (HPC)): 93 % of control
T/C (dose: 100.0 mg/kg/injection, schedule: Q01DX001 (ip), vehicle: Klucel (hydroxypropylcellulose) (HPC)): 101 % of control

CC(=S)Nc1ccccc1
T/C (dose: 25.0 mg/kg/injection, schedule: Q01DX009 (ip), vehicle: Klucel (hydroxypropylcellulose) (HPC)): 101 % of control
T/C (dose: 50.0 mg/kg/injection, schedule: Q01DX009 (ip), vehicle: Klucel (hydroxypropylcellulose) (HPC)): 104 % of control
T/C [7]: 95 % of control

S=Cc1cccc2c1CCCC2
T/C [15]: 111 % of control
T/C [16]: 100 % of control
T/C [17]: 97 % of control

CCCCC(CCCC)NCCO
T/C (dose: 75.0 mg/kg/injection, schedule: Q01DX001 (ip), vehicle: carboxymethylcellulose (CMC)): 98 % of control
T/C (dose: 150.0 mg/kg/injection, schedule: Q01DX001 (ip), vehicle: carboxymethylcellulose (CMC)): 96 % of control

O=c1c2ccccc2sc2cccc(Sc3ccccc3)c12
T/C [1]: 101 % of control
T/C [2]: 98 % of control
T/C [3]: 98 % of control

OC(COc1ccccc1)CN1CCN(c2cccc(Cl)c2)CC1 (stereo not given)
T/C [12]: 97 % of control
T/C [13]: 95 % of control
T/C [14]: 92 % of control

O=C(O)c1ccc2c(c1Nc1ccc(-c3ccc(Nc4c(C(=O)O)ccc5c4C(=O)c4ccccc4C5=O)cc3)cc1)C(=O)c1ccccc1C2=O
T/C [8]: 93 % of control
T/C [9]: 97 % of control
T/C [10]: 101 % of control

[Cl][Pt+2][Cl].[NH-]CCN1CC1
T/C (dose: 50.0 mg/kg/injection, schedule: Q04DX003 (ip), vehicle: saline): 122 % of control
T/C (dose: 100.0 mg/kg/injection, schedule: Q04DX003 (ip), vehicle: saline): 122 % of control

Cc1cc(C)c(Br)c(C)c1C
T/C [12]: 104 % of control
T/C [13]: 113 % of control
T/C [14]: 116 % of control

NC(CSC(c1ccccc1)(c1ccccc1)c1ccc(Br)cc1)C(=O)O (stereo not given)
T/C (dose: 3.13 mg/kg/injection, schedule: Q01DX009 (ip), vehicle: saline): 155 % of control
T/C (dose: 6.25 mg/kg/injection, schedule: Q01DX009 (ip), vehicle: saline): 162 % of control
T/C (dose: 12.5 mg/kg/injection, schedule: Q01DX009 (ip), vehicle: saline): 214 % of control
T/C (dose: 25.0 mg/kg/injection, schedule: Q01DX009 (ip), vehicle: saline): 111 % of control
T/C (dose: 75.0 mg/kg/injection, schedule: Q01DX001 (ip), vehicle: other): 105 % of control
T/C (dose: 150.0 mg/kg/injection, schedule: Q01DX001 (ip), vehicle: other): 121 % of control

Oc1ccc(F)c2cccnc12
T/C (dose: 50.0 mg/kg/injection, schedule: Q01DX001 (ip), vehicle: carboxymethylcellulose (CMC)): 101 % of control

O=C(O)C1CCC2(CCCCC2)CC1
T/C (dose: 25.0 mg/kg/injection, schedule: Q01DX009 (ip), vehicle: water): 101 % of control
T/C (dose: 50.0 mg/kg/injection, schedule: Q01DX009 (ip), vehicle: water): 93 % of control
T/C (dose: 100.0 mg/kg/injection, schedule: Q01DX009 (ip), vehicle: water): 98 % of control
T/C (dose: 200.0 mg/kg/injection, schedule: Q01DX009 (ip), vehicle: water): 92 % of control
